# Test results from PMC10232439, “Identification of photocrosslinking peptide ligands by mRNA display” (Communications Chemistry, 2023).
# Where a SMILES comes first, the peptide text is derived from it. Bridges are numbered along the chain shown (N, C = ends). Where no end group is shown, it is not given here. [ ]: non-standard residue; d: D form. The star is where a group is joined. 5FAM = O=C1OC2(c3ccc(O)cc3Oc3cc(O)ccc32)c2ccc(C(=O)*)cc21; Bpa = N[C@@H](Cc1ccc(C(=O)c2ccccc2)cc1)C(=O)O
# Key:
# BRD3-BD2 [1] = target: T1, BRD3-BD2 (Homo sapiens, UniProt Q15059); assay: Direct fluorescence anisotropy binding assay; conditions: direct fluorescence anisotropy with FAM-labelled peptide (100 nM final), 12-point 2-fold dilution of BRD3-BD2, 30 min rt, read at 25 °C; mean of at least three replicates ± SD
# T1 construct: BRD3-BD2 (306–421, Q15059); Avi tag (biotinylated in vivo; vector pQE80L-Navi); made in house; host or cells: Escherichia coli BL21(DE3)
# T1 sequence (Q15059 306-421): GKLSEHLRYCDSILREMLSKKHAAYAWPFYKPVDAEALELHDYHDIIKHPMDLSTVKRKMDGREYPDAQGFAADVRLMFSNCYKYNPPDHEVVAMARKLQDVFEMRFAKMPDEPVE
# Method: Binding affinities for the two fluorescently tagged peptides were then determined using a direct fluorescence anisotropy assay (Fig. 2d and Supplementary Fig. S6). […] Having established that our peptides were able to bind to BRD3-BD2, we next assessed the crosslinking efficiency of the unlabelled variants. We were pleased to find that both peptides efficiently cross-linked to BRD3-BD2 upon exposure to UV light. After incubation with two equivalents of peptide and irradiation at 365 nm for only 5 min, we observed around 40% protein modification as analysed by sample separation on an SDS-PAGE gel and Coomassie staining. […]
# (§1) S7. Direct fluorescence anisotropy assay […]
# (§2) After 30 min, fluorescence anisotropy was measured with a CLARIOstar plate reader (BMG Labtech) using excitation at 482 nm and emissions at 530 nm at 25 °C. […] KD values were calculated using GraphPad Prism and a curve fitted using a one site - total fitting model. […]
# (§3) Irradiated samples were analysed by SDS-PAGE on 4–20% Bis-Tris gels (mPAGE, Millipore).
# (§4) Experiments with Bpa-P1 and Bpa-P2 were visualised by Quick Coomassie staining (Neo Biotech) with gels imaged on a Chemidoc MP Imaging System (Biorad) and quantified by Fiji. Experiments with Bpa-P1-FAM and Bpa-P2-FAM were visualised by in gel fluorescence imaging using a Typhoon FLA 9500 […]
# Irradiated samples with BRD3-BD2 were further analysed by LCMS. […]
# BRD3-BD2 [2] = target: T1, BRD3-BD2; assay: Photocrosslinking of BRD3-BD2, SDS-PAGE/Coomassie densitometry; type: biochemical; conditions: BRD3-BD2 20 µM, peptide 40 µM (two equivalents), 365 nm for 40 min, 0 °C; SDS-PAGE, Coomassie; mean of triplicate
# Method: Fig. 3 Photocrosslinking of BRDs with pBpa-containing ligands. a Crosslinking between BRD3-BD2 (20 µM) and cyclic peptides (40 µM) after exposure to UV irradiation (365 nm) for variable amounts of time (0, 5, 10, 20, 40 min). Samples were separated on an SDS-PAGE gel and visualised by Coomassie staining. b Plot of percentage of cross-linked BRD3-BD2 calculated by densitometric analysis of protein bands from (a). Crosslinking efficiencies are represented as the mean of triplicate experiments ±1 standard deviation. c Crosslinking of BRD3-BD2/BRD2-BD2/BRD4-BD2/BRD3-BD1 (2 µM) by cyclic peptides (20 µM) after exposure to UV irradiation for 30 min. Samples were analysed and processed as described in (a, b). […]
# as §1, §2, §3, §4
# BRD3-BD1 = conditions: tight binding peptide to its target protein BRD3-BD1; cited from earlier work
# [3] = target: T2, second bromodomain of BRD3 (BRD3-BD2), biotinylated (human (from the printed accession), UniProt Q15059 306-421, biotin (biotinylated; cultures induced with IPTG and 100 µM biotin)); assay: SPR; peptide 3.2B on BRD3-BD2 cross-linked to Bpa-P1 or Bpa-P2; mean ± standard deviation of the mean; conditions: both partners purified
# T2 construct: BRD3, second bromodomain, residues 306-421 of Q15059; also called wild-type BRD3-BD2; source: E. coli BL21(DE3), purified (HisTrap, Superdex 75)
# T2 sequence (Q15059 306-421): as above
Molecule,Kd (BRD3-BD2 [1]) [µM],protein modification (cross-linked BRD3-BD2) (BRD3-BD2 [2]) [%],also measured
CC(C)C[C@@H]1NC(=O)[C@H](Cc2ccc(O)cc2)NC(=O)[C@H](Cc2ccc(C(=O)c3ccccc3)cc2)NC(=O)[C@H](CC(=O)O)NC(=O)[C@H](CC(=O)O)NC(=O)[C@H](CC(N)=O)NC(=O)[C@H](C(C)C)NC(=O)[C@H](CO)NC(=O)[C@H](CC(N)=O)NC(=O)[C@H](CC(C)C)NC(=O)[C@@H](Cc2ccc(O)cc2)NC(=O)CSC[C@@H](C(=O)NCC(=O)N[C@@H](CCCCNC(=O)c2ccc3c(c2)C(=O)OC32c3ccc(O)cc3Oc3cc(O)ccc32)C(N)=O)NC(=O)[C@H](Cc2ccc(O)cc2)NC(=O)[C@H](C)NC1=O [Bpa-P1-FAM] ({CH2CO}-[dY]LNSVNDD[Bpa]YLAYCGK(5FAM)-NH2; thioether N-14),29 ± 10,–,–
CC(C)C[C@@H]1NC(=O)[C@H](Cc2ccc(O)cc2)NC(=O)[C@H](Cc2ccc(C(=O)c3ccccc3)cc2)NC(=O)[C@H](CC(=O)O)NC(=O)[C@H](CC(=O)O)NC(=O)[C@H](CC(N)=O)NC(=O)[C@H](C(C)C)NC(=O)[C@H](CO)NC(=O)[C@H](CC(N)=O)NC(=O)[C@H](CC(C)C)NC(=O)[C@@H](Cc2ccc(O)cc2)NC(=O)CSC[C@@H](C(=O)NCC(N)=O)NC(=O)[C@H](Cc2ccc(O)cc2)NC(=O)[C@H](C)NC1=O [Bpa-P1] ({CH2CO}-[dY]LNSVNDD[Bpa]YLAYCG-NH2; thioether N-14),–,96,–
CC[C@H](C)[C@@H]1NC(=O)[C@H](Cc2ccccc2)NC(=O)[C@H](Cc2ccc(C(=O)c3ccccc3)cc2)NC(=O)[C@H]([C@@H](C)O)NC(=O)[C@H](CC(=O)O)NC(=O)CNC(=O)[C@H](CCCCN)NC(=O)[C@H](C)NC(=O)[C@H](CC(N)=O)NC(=O)[C@H](CC(C)C)NC(=O)[C@@H](Cc2ccc(O)cc2)NC(=O)CSC[C@@H](C(=O)NCC(=O)N[C@@H](CCCCNC(=O)c2ccc3c(c2)C(=O)OC32c3ccc(O)cc3Oc3cc(O)ccc32)C(N)=O)NC(=O)[C@H](Cc2ccc(O)cc2)NC(=O)[C@H]([C@@H](C)CC)NC1=O [Bpa-P2-FAM] ({CH2CO}-[dY]LNAKGDT[Bpa]FIIYCGK(5FAM)-NH2; thioether N-14),14 ± 1,–,–
CC[C@H](C)[C@@H]1NC(=O)[C@H](Cc2ccccc2)NC(=O)[C@H](Cc2ccc(C(=O)c3ccccc3)cc2)NC(=O)[C@H]([C@@H](C)O)NC(=O)[C@H](CC(=O)O)NC(=O)CNC(=O)[C@H](CCCCN)NC(=O)[C@H](C)NC(=O)[C@H](CC(N)=O)NC(=O)[C@H](CC(C)C)NC(=O)[C@@H](Cc2ccc(O)cc2)NC(=O)CSC[C@@H](C(=O)NCC(N)=O)NC(=O)[C@H](Cc2ccc(O)cc2)NC(=O)[C@H]([C@@H](C)CC)NC1=O [Bpa-P2] ({CH2CO}-[dY]LNAKGDT[Bpa]FIIYCG-NH2; thioether N-14),–,78,–
"cyclic-WKTIKGKTWRTKQC(S-) (sidechain bridge or staple) [3.1B, previously identified non-covalent cyclic peptide ligand of the first bromodomain of BRD3, BRD3-BD1]",–,–,Kd (BRD3-BD1): 0.49 nM
"WSWLCKK(Ac)YNLIH (thioether (positions not given here); not fully specified (bridges); also: cyclic through C5 sulfur, other ring end not given here, bridge at 5, other end not in the chain, Printed as cyclic-WSWLC(S-)KKYNLIH with the second K underlined (acetylated)) [peptide 3.2B]",–,–,binding result [3]: binds
